Results as given in patent US20260069584A1, “METHODS OF TREATING CHRONIC MYELOID LEUKEMIA USING THE TYROSINE KINASE INHIBITOR VODOBATINIB” (Sun Pharma Advanced Research Company Ltd., priority 2022, published 2026).

Legend:
[1] = test system: cell lines expressing Ph+ wild-type and mutant forms of BCR-ABL1; assay: Growth inhibition of cell lines; assay type: cell-based
[2] = Pharmacokinetics in CML patients by dose cohort; conditions: for Cmin: cycle 2, CML patients, oral; for AUC(0-t) / Cmax: human, plasma, po
Protocol: A±5 minutes window permitted till 4 hours PK sample collection. A±10 minutes window permitted for subsequent PK sample collection. Days 3, 8, 15, and 22 of Cycle 1:30 (±10) minutes Predose only. […] A #5 minutes window permitted till 4 hours PK sample collection. A #10 minutes window permitted for subsequent PK sample collection. Days 8, 15, and 22 of Cycle 2:30 (±10) minutes Predose only. Cycle 3 onwards: Predose samples on Day 1.
Pharmacokinetic analysis was performed using non-compartmental analysis. The actual elapsed time from dose was used in the final PK parameter calculations. Plasma concentrations and PK parameters for the compound of Formula I were listed and summarized by dose cohort using descriptive statistics (n, mean, standard deviation, minimum, median, and maximum). Geometric mean and geometric coefficient of variation were calculated for PK parameters. Additionally, mean concentration profiles by dose cohort and cycle were illustrated. Dose proportionality of Cmax and AUC(0-24) was assessed graphically for Cycle 1 and Cycle 2. Dose proportionality was statistically evaluated using the power model approach, whenever the number of patients was at least 3 for a given cohort. Time to steady-state (Ctrough) was evaluated graphically. Differences among dose levels in CL/F and V/F, and dose-normalized Cmax and AUC(0-24) were explored using an analysis of variance.
The PK parameters for the study were summarized by treatment using descriptive (N, n, mean, standard deviation [SD], coefficient of variation [CV] % minimum, median, maximum, geometric mean and CV %) statistics, except for Tmax. For Tmax, the number of subjects, minimum, median, and maximum are reported.

[3] = Parts B and C pooled (n=59): safety; conditions: in vivo
Excerpt: Fifty-five of the 59 subjects (93.2%) experienced an AE during the study, of which 62.7% of AEs (n=37) were suspected to be related to the compound of Formula I treatment. Most frequently reported AEs related to the compound of Formula I included thrombocytopenia, neutropenia, nausea, diarrhea, pruritus, fatigue and myalgia. The compound of Formula I-related AEs was generally low grade and resolved with drug hold or dose reduction. […] The AEs were distributed across all the dosing cohorts without any safety trends or association with dose(s). The DLTs (except for 1 event of fatal intracranial hemorrhage) were non-serious AEs and managed well by dose delays and/or reductions. […] A total of 5 subjects died during the study or within 30 days after the last dose of the study drug, which is not unexpected given that all patients enrolled in the study had advanced and heavily pretreated CML. The AEs related to the compound of Formula I treatment were consistent with the advanced CML population with multiple comorbidities and concomitant medications during the study.

[4] = Single- and repeat-dose studies in preclinical models, oral route
[5] = Oral toxicity study in Wistar Rats; conditions: rat, in vivo
[6] = target: ABL1 kinase and its mutant forms; assay: In-vitro ABL1 kinase inhibition; assay type: biochemical
[7] = test system: Ph+ CML (CP CML, AP CML, and BP CML); assay: Phase 2 open-label study (Part C) in CML resistant or intolerant to ≥3 prior TKIs including ponatinib: disease response; assay type: in vivo, human
Protocol: A multicenter open-label study in subjects with CML (CP CML, AP CML, and BP CML) who documented resistance or intolerance to more than or equal to 3 prior TKIs one of which included ponatinib was performed. The subjects for this were grouped as follows: • a) Cohort A—Ph+ CML: Chronic phase (CP CML) cohort • b) Cohort B—Ph+ CML: Accelerated phase (AP) cohort • c) Cohort C—Ph+ CML: Blast phase (BP) cohort.
The primary objective of this study was to evaluate the efficacy of the compound of Formula I in CP CML patients by cytogenetic outcomes and in AP CML and BP CML patients by hematologic outcomes. Secondary objectives included evaluation of anti-leukemic efficacy of compound of Formula I by molecular outcomes, hematological outcomes in CP CML patients, and by cytogenetic outcomes in AP CML and BP CML; time to first hematologic response; duration of response; progression-free survival (PFS) and overall survival (OS), population PK of the compound of Formula I and safety.
The selection criteria for subjects (Both inclusion and exclusion) were the same as those set forth above study, except for the following: Subjects had to be previously treated with ≥3 prior TKIs including the 3rd generation TKI, ponatinib; subjects with Ph+ ALL were not included in this study; subjects with presence of T3151 mutations were excluded in the study. Limited to no response on a TKI therapy is reported in CML patients post-ponatinib treatment (Leuk Lymphoma 2018 June; 59 (6): 1312-1322).
Patients were followed for survival by telephone survey.
The Compound of Formula I with 174 mg as capsules was administered orally once daily continuously in 4-week cycles. Patients self-administered the compound of Formula I on an outpatient basis at approximately the same time each morning after overnight fasting or fasting ˜2 hours before and after dosing.
Bone marrow aspirate samples were sent for review of cytogenetics by conventional Giemsa staining method (karyotyping). Fluorescence in situ hybridization (FISH) was performed on bone marrow aspirates only in cases of subjects who had achieved complete cytogenetic response (confirmed by karyotyping) with the studied drug and who had minimum residual disease. FISH was also used if a sufficient sample was not available for conducting the Giemsa staining method (karyotyping).
Standard cytogenetic methods were used to determine the presence of the Ph+ and its presence (percentage) in the bone marrow. At least 20 cells in metaphase were evaluated for karyotyping. Bone marrow cytogenetics was scheduled to be performed within 7 days of the scheduled date irrespective of missed doses or disease or dose-associated AEs.
Molecular response monitoring (MMR) using PCR for BCR-ABL copy number was performed on the collected blood samples and was assessed using the international scale (IS).
The hematologic response was evaluated by peripheral blood utilizing local laboratory results.

Cc1ccc(C(=O)NNC(=O)c2c(C)cccc2Cl)cc1C#Cc1cnc2ccccc2c1 [compound of Formula I, N′-(2-chloro-6-methylbenzoyl)-4-methyl-3-[2-(3-quinolyl)ethynyl]-benzohydrazide]
effect on cell lines [1]: growth inhibition
Cmin ([2]; dose cohort 12): 61.8
Cmin ([2]; dose cohort 24): 114
Cmin ([2]; dose cohort 48): 261
Cmin ([2]; dose cohort 66): 102.7
Cmin ([2]; dose cohort 90): 363
Cmin ([2]; dose cohort 126): 831
Cmin ([2]; dose cohort 174): 254
Cmin ([2]; dose cohort 204): 427
increase of mean exposures (AUC) with dose ([2]; doses above 174 mg): sub-proportional increase or plateauing of exposures
AUC(0-t) ([2]; 12 mg): 3330 ng·h/mL
Cmax ([2]; 12 mg): 685 ng/mL
AUC(0-t) ([2]; 24 mg): 5070 ng·h/mL
Cmax ([2]; 24 mg): 589 ng/mL
AUC(0-t) ([2]; 48 mg): 13700 ng·h/mL
Cmax ([2]; 48 mg): 1090 ng/mL
AUC(0-t) ([2]; 66 mg): 7780 ng·h/mL
Cmax ([2]; 66 mg): 830 ng/mL
AUC(0-t) ([2]; 90 mg): 22800 ng·h/mL
Cmax ([2]; 90 mg): 2860 ng/mL
AUC(0-t) ([2]; 126 mg): 50300 ng·h/mL
Cmax ([2]; 126 mg): 4100 ng/mL
AUC(0-t) ([2]; 174 mg): 35700 ng·h/mL
Cmax ([2]; 174 mg): 4210 ng/mL
steady state reached (trough concentrations) ([2]; majority of the subjects): ≤ 3 days
accumulation at steady state ([2]; once-daily dosing): no low or minimal accumulation
AEs suspected to be related to treatment ([3]; human): 62.7%
subjects who died during the study or within 30 days after the last dose ([3]; human): 5 subjects
subjects who experienced an AE ([3]; human): 93.2%
subjects who experienced an SAE ([3]; human): 34%
subjects with grade 3 or higher-grade AEs ([3]; human): Approximately 64.4%
relatedness of cardiac AEs [3]: considered unrelated
adverse events ([4]; multiple efficacious doses): no specific adverse events
systemic exposure ([4]; oral route, daily dosing): systemic bioavailability
AUC ([4]; plasma, oral): 13400 ng·h/mL
NOAEL [5]: 100 mg/kg/day
IC50 [6]: nanomolar
Best Cytogenetic Response: Complete Cytogenetic Response ([7]; 174 mg (N = 7)): 1 (14.3%)
Best Cytogenetic Response: Major Cytogenetic Response ([7]; 174 mg (N = 7)): 2 (28.6%)
Best Cytogenetic Response: Minimal Cytogenetic Response ([7]; 174 mg (N = 7)): 0
Best Cytogenetic Response: Minor Cytogenetic Response ([7]; 174 mg (N = 7)): 0
Best Cytogenetic Response: No Response ([7]; 174 mg (N = 7)): 2 (28.6%)
Best Cytogenetic Response: Partial Cytogenetic Response ([7]; 174 mg (N = 7)): 1 (14.3%)
Best Hematologic Response: Complete Hematologic Response ([7]; 174 mg (N = 7)): 6 (85.7%)
Best Hematologic Response: Major Hematologic Response ([7]; 174 mg (N = 7)): 6 (85.7%)
Best Hematologic Response: No Evidence of Leukemia ([7]; 174 mg (N = 7)): 0
Best Hematologic Response: No Response ([7]; 174 mg (N = 7)): 1 (14.3%)
Best Molecular Response: Complete Response ([7]; 174 mg (N = 7)): 0
Best Molecular Response: Major Response ([7]; 174 mg (N = 7)): 1 (14.3%)
Best Molecular Response: No Response ([7]; 174 mg (N = 7)): 4 (57.1%)
Major molecular response (MMR) as best response ([7]; 1 of the 7 enrolled subjects, 174 mg): 14.3%
Complete hematological response (CHR) as best response ([7]; 2 of the 2 AP-CML enrolled subjects): 100%
Major cytogenetic response (MCyR) as best response ([7]; 2 of the 7 enrolled subjects, 174 mg): 28.6%
major hematological response (MaHR) as best response ([7]; 6 of the 7 enrolled subjects, 174 mg): 85.7%
Major molecular response (MMR) as best response ([7]; 6 of the 13 enrolled CP-CML subjects): 46.2%
achieved MaHR in the study ([7]; 7 enrolled subjects, 174 mg): 5 subjects
came into the study in MaHR and maintained it ([7]; 7 enrolled subjects, 174 mg): 1 subject
Major cytogenetic response (MCyR) as best response ([7]; 11 CP-CML enrolled subjects): 84.6%
Complete hematological response (CHR) as best response ([7]; 13 of the 15 CP-CML enrolled subjects): 86.7%
achieved CHR in study ([7]; CP-CML, of 13): 9 subjects
came into the study in CHR and maintained it ([7]; CP-CML, of 13): 4 subjects
developed CCyR ([7]; CP-CML, of the 13 subjects): 61.5%
